Species on record: Rattus norvegicus
Test: DrugMatrix - Regimen: Daily Repeat
Type: toxicity, organism-based, Sprague-Dawley
Parameters: regimen Daily Repeat, gender Male, age 6-8 weeks
Conditions: in vivo, po, route oral GAVAGE, […]; for ABSOLUTE BASOPHIL / ABSOLUTE EOSINOPHIL / ABSOLUTE LYMPHOCYTE / ABSOLUTE MONOCYTE / ABSOLUTE SEGMENTED NEUTROPHIL / BASOPHIL / EOSINOPHIL / ERYTHROCYTE COUNT / HEMATOCRIT / HEMOGLOBIN / LEUKOCYTE COUNT / LYMPHOCYTE / MEAN CORPUSCULAR HEMOGLOBIN / MEAN CORPUSCULAR HEMOGLOBIN CONCENTRATION / MEAN CORPUSCULAR VOLUME / MONOCYTE / NEUTROPHIL / NUCLEATED RED BLOOD CELLS / PLATELET COUNT: tissue Blood; for ALANINE AMINOTRANSFERASE / ALBUMIN / ALKALINE PHOSPHATASE / ASPARTATE AMINOTRANSFERASE / BLOOD UREA NITROGEN / CARBON DIOXIDE / CHLORIDE / CHOLESTEROL / CREATINE PHOSPHOKINASE / CREATININE / GLUCOSE / LACTATE DEHYDROGENASE / LIPASE / PHOSPHORUS / POTASSIUM / SODIUM / TOTAL BILIRUBIN / TOTAL PROTEIN / URIC ACID: tissue Plasma
[1] = 100 mg/kg, 120 h, dose level Low, time 5 day
[2] = 750 mg/kg, 72 h, dose level High, time 3 day
[3] = 750 mg/kg, 120 h, dose level High, time 5 day

CCn1cc(C(=O)O)c(=O)c2cc(F)c(N3CCNCC3)nc21 [ENOXACIN]
ABSOLUTE BASOPHIL [1]: 0 CELLS/uL
ABSOLUTE EOSINOPHIL [1]: 262.67 CELLS/uL
ABSOLUTE LYMPHOCYTE [1]: 12714 CELLS/uL
ABSOLUTE MONOCYTE [1]: 457 CELLS/uL
ABSOLUTE SEGMENTED NEUTROPHIL [1]: 1799.67 CELLS/uL
BASOPHIL [1]: 0%
EOSINOPHIL [1]: 1.33%
ERYTHROCYTE COUNT [1]: 5.43 x10E6/uL
HEMATOCRIT [1]: 34.07%
HEMOGLOBIN [1]: 13.27 G/DL
LEUKOCYTE COUNT [1]: 15.23 x10E3/uL
LYMPHOCYTE [1]: 83.33%
MEAN CORPUSCULAR HEMOGLOBIN [1]: 24.4 pg
MEAN CORPUSCULAR HEMOGLOBIN CONCENTRATION [1]: 38.93 G/DL
MEAN CORPUSCULAR VOLUME [1]: 62.67 fL
MONOCYTE [1]: 3%
NEUTROPHIL [1]: 12.33%
NUCLEATED RED BLOOD CELLS [1]: 0 /100WBC
PLATELET COUNT [1]: 958 x10E3/uL
ALANINE AMINOTRANSFERASE [1]: 51.33 u/L
ALBUMIN [1]: 4.1 G/DL
ALKALINE PHOSPHATASE [1]: 295.33 u/L
ASPARTATE AMINOTRANSFERASE [1]: 76.33 u/L
BLOOD UREA NITROGEN [1]: 14.33 mg/dL
CARBON DIOXIDE [1]: 23 mmol/L
CHLORIDE [1]: 101 MEQ/L
CHOLESTEROL [1]: 78.33 mg/dL
CREATINE PHOSPHOKINASE [1]: 454 u/L
CREATININE [1]: 0.19 mg/dL
GLUCOSE [1]: 186.67 mg/dL
LACTATE DEHYDROGENASE [1]: 187 u/L
LIPASE [1]: 6.33 u/L
PHOSPHORUS [1]: 12.27 mg/dL
POTASSIUM [1]: 6.41 MEQ/L
SODIUM [1]: 140.57 MEQ/L
TOTAL BILIRUBIN [1]: 0.13 mg/dL
TOTAL PROTEIN [1]: 5.9 G/DL
URIC ACID [1]: 1.2 mg/dL
ABSOLUTE BASOPHIL [2]: 0 CELLS/uL
ABSOLUTE EOSINOPHIL [2]: 0 CELLS/uL
ABSOLUTE LYMPHOCYTE [2]: 12588.33 CELLS/uL
ABSOLUTE MONOCYTE [2]: 501.33 CELLS/uL
ABSOLUTE SEGMENTED NEUTROPHIL [2]: 1877 CELLS/uL
BASOPHIL [2]: 0%
EOSINOPHIL [2]: 0%
ERYTHROCYTE COUNT [2]: 5.55 x10E6/uL
HEMATOCRIT [2]: 34.83%
HEMOGLOBIN [2]: 13.57 G/DL
LEUKOCYTE COUNT [2]: 14.97 x10E3/uL
LYMPHOCYTE [2]: 84.33%
MEAN CORPUSCULAR HEMOGLOBIN [2]: 24.47 pg
MEAN CORPUSCULAR HEMOGLOBIN CONCENTRATION [2]: 38.93 G/DL
MEAN CORPUSCULAR VOLUME [2]: 62.87 fL
MONOCYTE [2]: 3.33%
NEUTROPHIL [2]: 12.33%
NUCLEATED RED BLOOD CELLS [2]: 0 /100WBC
PLATELET COUNT [2]: 1299.33 x10E3/uL
ALANINE AMINOTRANSFERASE [2]: 54 u/L
ALBUMIN [2]: 3.8 G/DL
ALKALINE PHOSPHATASE [2]: 389 u/L
ASPARTATE AMINOTRANSFERASE [2]: 64.33 u/L
BLOOD UREA NITROGEN [2]: 14.67 mg/dL
CARBON DIOXIDE [2]: 24.67 mmol/L
CHLORIDE [2]: 101.67 MEQ/L
CHOLESTEROL [2]: 66.33 mg/dL
CREATINE PHOSPHOKINASE [2]: 317.67 u/L
CREATININE [2]: 0.12 mg/dL
GLUCOSE [2]: 181.33 mg/dL
LACTATE DEHYDROGENASE [2]: 80.33 u/L
LIPASE [2]: 10 u/L
PHOSPHORUS [2]: 9.8 mg/dL
POTASSIUM [2]: 5.81 MEQ/L
SODIUM [2]: 140.9 MEQ/L
TOTAL BILIRUBIN [2]: 0.1 mg/dL
TOTAL PROTEIN [2]: 5.63 G/DL
URIC ACID [2]: 1.27 mg/dL
ABSOLUTE BASOPHIL [3]: 0 CELLS/uL
ABSOLUTE EOSINOPHIL [3]: 145 CELLS/uL
ABSOLUTE LYMPHOCYTE [3]: 12773 CELLS/uL
ABSOLUTE MONOCYTE [3]: 466 CELLS/uL
ABSOLUTE SEGMENTED NEUTROPHIL [3]: 1749.33 CELLS/uL
BASOPHIL [3]: 0%
EOSINOPHIL [3]: 1%
ERYTHROCYTE COUNT [3]: 5.4 x10E6/uL
HEMATOCRIT [3]: 33.53%
HEMOGLOBIN [3]: 13.27 G/DL
LEUKOCYTE COUNT [3]: 15.13 x10E3/uL
LYMPHOCYTE [3]: 84.33%
MEAN CORPUSCULAR HEMOGLOBIN [3]: 24.57 pg
MEAN CORPUSCULAR HEMOGLOBIN CONCENTRATION [3]: 39.6 G/DL
MEAN CORPUSCULAR VOLUME [3]: 62.07 fL
MONOCYTE [3]: 3%
NEUTROPHIL [3]: 11.67%
NUCLEATED RED BLOOD CELLS [3]: 0 /100WBC
PLATELET COUNT [3]: 1091.67 x10E3/uL
ALANINE AMINOTRANSFERASE [3]: 57.67 u/L
ALBUMIN [3]: 4.03 G/DL
ALKALINE PHOSPHATASE [3]: 396.33 u/L
ASPARTATE AMINOTRANSFERASE [3]: 69.67 u/L
BLOOD UREA NITROGEN [3]: 12.67 mg/dL
CARBON DIOXIDE [3]: 24 mmol/L
CHLORIDE [3]: 101.33 MEQ/L
CHOLESTEROL [3]: 61.33 mg/dL
CREATINE PHOSPHOKINASE [3]: 482.67 u/L
CREATININE [3]: 0.16 mg/dL
GLUCOSE [3]: 207 mg/dL
LACTATE DEHYDROGENASE [3]: 141 u/L
LIPASE [3]: 6.67 u/L
PHOSPHORUS [3]: 13.2 mg/dL
POTASSIUM [3]: 5.17 MEQ/L
SODIUM [3]: 141.5 MEQ/L
TOTAL BILIRUBIN [3]: 0.13 mg/dL
TOTAL PROTEIN [3]: 5.8 G/DL
URIC ACID [3]: 1.5 mg/dL
